Patent publication US20050043262A1, “Novel specific inhibitor of the cyclin kinase inhibitor p21Waf1/Cip1 and methods of using the inhibitor” (priority 2000, published 2005)
In the oligonucleotide strings, read from the 5' end, every base follows the letter of its sugar. An asterisk marks phosphorothioate; unmarked linkages are phosphodiester. Other units and linkages are bracketed, terminal groups are in braces. A string of capitals states the bases alone. d = 2'-deoxy (DNA)

Key:
Assay type in all cases: cell-based, human
p21 [1] = assay: p21 level in T47D cells (immunoblot, immunohistochemistry); conditions: for p21 level by immunoblot: 200 or 400 nM, 24 hours after transfection
Protocol: (§1) Antisense Transfections: […] (Wilsonville, Oreg.). The human p21 antisense ODN sequence was [NT] ID NO.: 4). The randomly scrambled sequence of control ODN was [NT] ID NO.: 3), and the second control ODN (used for the experiment depicted in FIG. 34 was the sense human p21 sequence [NT] ID NO.: 5). For the transfection procedure, cells were grown to 70% confluence and washed with sterile PBS, and the ODNs (200 or 400 nM) were mixed with 6.6 μl Lipofectin/ml Opti-MEM media and added to the cells for 5 hours at 37° C. Serum-free media (without ODNs) were added overnight, the media were changed in the morning, and the cells were stimulated with serum or platelet-derived growth factor-BB as indicated. Immunoblotting: For FIGS. 27A and B, aliquots of each breast tumor (7) and corresponding normal (N) tissue were homogenized and subjected to immunoblotting with full-length p21 antibody and α-actin as a loading control. Density of p21 and actin bands was determined and reported as a ratio. HeLa cell nuclear extract was electrophoresed on the same gel as a positive control for p21 mobility. The samples of breast cancer tissues were cut into small pieces and rapidly homogenized in lysis buffer (1 ml/ mg) at 4° C. Cells from cell lines were grown to confluence in 60-mm culture dishes, and after incubation under appropriate conditions, the cells were washed with PBS and lysed in lysis buffer at 4° C. The tissue homogenates or cell lysates were centrifuged (13,000× g, 4° C., 10 min), and the supernatants were Western blotted as described previously (Weiss, […]., and Ramirez, A., Am. J. Physiol., 274: […]-[…], 1998). Densitometry was analyzed using NIH Image. […] Percentage of cytoplasmic and nuclear staining, intensity of staining (using a scale of 0 to 3+), and tumor grading using a modified Bloom-Richardson combined histological grade were determined by a breast pathologist. […] A and B, the cells were lysed, and equal protein quantities (20 μg) were electrophoresed and immunoblotted with p21 antibody. […] Density of p21 and MAPK bands was determined and reported as a ratio. […]

p21 [2] = assay: p21 level in MCF7 cells (immunoblot, immunohistochemistry); conditions: for p21 level by immunoblot: 200 or 400 nM, 24 hours after transfection
Protocol: as §1

PARP [3] = assay: PARP cleavage by immunoblot in T47D cells
Protocol: (§2) As a further measure of apoptosis, cleavage of PARP was next examined. This protein is cleaved by caspases and results in appearance of Mr 85,000 and Mr 24,000 fragments, the latter of which binds irreversibly to broken ends of DNA, which assures irreversibility of apoptosis. Both breast cancer cell lines were transfected with antisense p21 and random sequence ODNs and immunoblotted with PARP antibody. […] T47D (A) and MCF7 (B) cells were grown to confluence, serum starved for 24 hours, and lipofected with antisense p21 or control ODN at the concentrations indicated. cont refers to nontransfected cells, and lipofect refers to cells treated with lipofectin but no DNA. The cells were lysed, and equal protein quantities were electrophoresed and immunoblotted with PARP antibody. The degradation product of PARP (Mr 85,000) is indicated by an arrow. MAPK is a loading control; a positive PARP cleavage control is Jurkat whole cell lysate.

PARP [4] = assay: PARP cleavage by immunoblot in MCF7 cells
Protocol: as §2

caspase-3 = assay: Caspase-3 activity (CaspACE colorimetric assay) in T47D cells; conditions: 200 to 400 nM
Protocol: Caspase-3 Activity: The CaspACE Assay System was used to measure the activity of caspase-3. After incubation under appropriate conditions, the cells were lysed in CaspACE lysis buffer, and protein concentration was determined by dye reagent protein assay (Bio-Rad, Hercules, Calif.). […] The lysates with equal protein amounts were incubated with DEVD-p-nitroaniline substrate for 4 hours at 37° C. The reaction products were detected at 405 nm using a PowerWave X automated plate reader (Bio-Tek Instruments).
As another confirmatory test for antisense p21 ODN-mediated apoptosis, caspase-3 activation was assessed. Members of the caspase family of proteases are essential components of an evolutionarily conserved cell death pathway in multicellular eukaryotes and play key roles in inflammation and apoptosis in mammalian cells. Caspase-3 has substrate specificity for the amino acid sequence DEVD (Asp-Glu-Val-Asp) and is inhibited by the tetrapeptide inhibitor Ac-DEVD-CHO; its catalytic activity was assessed colorimetrically using the labeled Ac-DEVD-pNA substrate. […] T47D cells were grown to confluence, serum starved for 24 hours, and lipofected with antisense p21 or control ODN at the concentrations indicated. Caspase-3 activity was assessed as described in “Capase-3 Activity” using a colorimetric method. […]

[5] = compared with random sequence ODN

Substance | p21 level by immunoblot (p21 [1]) | p21 staining by immunohistochemistry (p21 [1]; [5]) | p21 level by immunoblot (p21 [2]) | p21 staining by immunohistochemistry (p21 [2]; [5]) | PARP cleavage (Mr 85,000 product) (PARP [3]) | PARP cleavage (Mr 85,000 product) (PARP [4]) | caspase-3 cleavage (activity) (caspase-3)
5′-ATC-CCC-AGC-CGG-TTC-TGA-CAT-3′ (antisense ATCCCCAGCCGGTTCTGACAT; listed as DNA, chemistry not fully specified) [antisense p21 ODN] | marked, dose-dependent attenuation | decreased p21 staining | marked, dose-dependent attenuation | decreased p21 staining | marked PARP cleavage | marked PARP cleavage | marked dose-dependent caspase-3 cleavage
5′-TGG ATC CGA CAT GTC AGA-3′ (dT*dG*dG*dA*dT*dC*dC*dG*dA*dC*dA*dT*dG*dT*dC*dA*dG*dA) [random sequence control oligonucleotide, reference compound] | inhibitory effect | – | moderate decrease | – | proapoptotic effect | proapoptotic effect | no change
